Target: T1, SIRT1 deacetylase (BIOMOL) (Homo sapiens, UniProt Q96EB6)
T1 construct: purchased BIOMOL
T1 sequence (Q96EB6 1-747): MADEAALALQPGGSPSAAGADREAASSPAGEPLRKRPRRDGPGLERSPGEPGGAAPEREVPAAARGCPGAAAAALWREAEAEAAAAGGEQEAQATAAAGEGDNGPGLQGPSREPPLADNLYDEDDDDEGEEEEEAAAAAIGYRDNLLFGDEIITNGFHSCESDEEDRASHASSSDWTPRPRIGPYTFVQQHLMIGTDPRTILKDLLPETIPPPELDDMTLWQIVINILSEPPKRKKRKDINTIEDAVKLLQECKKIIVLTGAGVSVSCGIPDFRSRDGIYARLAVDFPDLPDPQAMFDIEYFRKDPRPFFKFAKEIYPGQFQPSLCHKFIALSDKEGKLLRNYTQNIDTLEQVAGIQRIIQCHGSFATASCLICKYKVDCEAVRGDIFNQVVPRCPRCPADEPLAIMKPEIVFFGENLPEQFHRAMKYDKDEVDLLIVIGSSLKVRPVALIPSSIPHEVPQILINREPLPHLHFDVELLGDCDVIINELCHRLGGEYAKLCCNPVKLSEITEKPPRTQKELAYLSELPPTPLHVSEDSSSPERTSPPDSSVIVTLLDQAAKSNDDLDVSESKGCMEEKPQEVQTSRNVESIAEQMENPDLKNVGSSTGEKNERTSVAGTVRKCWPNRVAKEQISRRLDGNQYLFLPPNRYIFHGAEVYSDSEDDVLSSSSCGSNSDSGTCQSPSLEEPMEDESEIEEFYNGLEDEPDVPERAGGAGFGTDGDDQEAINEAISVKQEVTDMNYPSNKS
Test: High-throughput SIRT1 screening protocol (ICCB library)
Assay type: biochemical
Details: positive controls; 200 μM NAD+, 5 μM Fluor de Lys-SIRT1; resveratrol 50 μM
Method: The reaction mixture contains (final): 0.5 units/reaction SIRT1 deacetylase (BIOMOL); 200 μM NAD^+; 5 μM Fluor de Lys-SIRT1 substrate (BIOMOL); buffer (25 mM Tris/Cl, pH 8.0, 137 mM NaCl, 2.7 mM KCl, 1 mM MgCl2, and 1 mg/ml BSA). In addition, a reaction mixture containing no enzyme was made so that each well receiving compound has a corresponding “no enzyme control” well. Reactions were performed in black 384 well plates (NUNC) in a final volume of 25 μl/well.
The reactions were started by combining enzyme and substrate in a reaction mixture immediately prior to aliquoting in plates (or substrate only for “no enzyme control” plates). Mixture were aliquoted to plates using Biotek μfill (Biotek Instruments). Control mixtures were manually added to designated wells. A library compound was added at a desired concentration by pin transfer to both “with enzyme” and “no enzyme” plates. Compounds were added in at least triplicate (with enzyme reaction in duplicate and no enzyme controls) at a final concentration of roughly 50 μM. The plates were incubated at 37° C for 30-60 minutes. Then 25 μl of 1× Developer II (BIOMOL) plus 2 mM nicotinamide were added to all wells to stop the reactions. The reactions were left for at least 30 minutes at 37° C. for the signal to develop. The plates were read in a microplate-reading fluorometer capable of excitation at a wavelength in the range of 350-380 nm and detection of emitted light in the range of 440-460 nm. A read time of 0.1 sec per well was used.

## Oc1ccc(/C=C/c2cc(O)cc(O)c2)cc1 [Resveratrol, 3,5,4′-Trihydroxy-trans-stilbene]
  activated SIRT1: 2.2 fold
